Test results from US20080026417A1, “ASSAYS FOR TRICHOMONAL AND OTHER HYDROLASES” (priority 2002, published 2008).
Peptide text beside a SMILES is read from it. * marks the point of attachment. AMC = Cc1cc(=O)oc2cc(N*)ccc12; Cbz = O=C(OCc1ccccc1)*; Boc = CC(C)(C)OC(=O)*

Legend:
[1] = test system: trichomonal hydrolases; test: Experiment 2: hydrolysis of substrates by trichomonal hydrolases with or without NVS, absorbance 540 nm; type: biochemical, Trichomonas vaginalis; conditions: absorbance at 540 nm per method; for Color Scores: Trichomonal hydrolases + NVS: 10% NVS
Protocol: Substrate solutions containing 8 mM of one of the four substrates (ZRR-MNA, BLRR-AMC, BLKR-AMC, ZKKR-AMC) in one of the two buffers (acetate, TRIS) were prepared by mixing 4 μL 100 mM substrate with 6 μL 6.3 mM L-cysteine, 14 μL 200 mM buffer and 26 μL water. Assays of trichomonal hydrolase activity, with or without the addition of NVS, were performed in 200 μL microwells. In one set of microwells, 10 μL of each substrate/buffer combination was mixed with 10 μL of undiluted trichomonal hydrolases. In a second set of microwells, 10 μL of each substrate/buffer combination was mixed with 10 μL of a mixture of 90% v/v trichomonal hydrolases and 10% NVS. Fifteen minutes later, 50 μL of indicator solution was added to each well. After another fifteen minutes, the absorbance of each solution in the wells was measured on a microtiter plate reader set on 540 nm wavelength.

[2] = test system: hydrolases present in whole normal vaginal fluid; test: Experiment 2: hydrolysis of substrates by whole normal vaginal fluid, visual color score; type: biochemical, human; set-up: key: 0: Yellow; 1: Peach; 2: Orange; 3: Light to medium pink; 4: Dark pink or red; 5: Fuchsia; 6: Purple; conditions: visual 0-6 scale
Protocol: Due to the partial opacity of cells and other particulate matter in whole vaginal fluid, assays of hydrolase activity present in whole vaginal fluid were performed in 20 μL conical microwells and scored visually. The vaginal fluid from a single normal, uninfected donor was agitated to resuspend the particulate matter, and 2 μL aliquots of the vaginal fluid were mixed with 2 μL of each substrate/buffer combination. To retard evaporation from the wells, water was pipetted into the mini-tray adjacent to the wells prior to replacing the tray cover. Fifteen minutes later, 2 μL of indicator solution was added to each well. After another fifteen minutes, the color in each well was visually scored in 0.5-unit increments using the 0-6 scale presented in Table 2.1.

[3] = test system: trichomonal hydrolases; test: Experiment 6 part 2: inhibition of trichomonal hydrolases added to filtered vaginal fluid; type: biochemical, Trichomonas vaginalis; set-up: key: 0: Yellow; 1: Peach; 2: Orange; 3: Light to medium pink; 4: Dark pink or red; 5: Fuchsia; 6: Purple; conditions: ZRR-MNA, 20 μg/mL antipain or 1 mM chymostatin
Protocol: (§1) Substrate/inhibitor combinations were prepared by mixing 4 μL of 100 mM ZRR-MNA, 20 μL of 1M HEPES buffer, 56 μL of deionized water, and 20 μL of either antipain, chymostatin, or deionized water. Filtered vaginal fluid was prepared from each specimen as follows: the swab was placed in a cuvette containing 200 μL of diluent and the swab was rotated in the diluent to thoroughly mix the swab contents into the diluent. The swab was removed, the swab head was broken off into a microfuge tube, and the liquid remaining in the swab head was forced out by centrifugation. The fluid extracted from the swab was combined with the liquid in the cuvette, and the total volume of fluid was filtered using a centrifuge filter unit to remove particulate matter.
(§2) For each specimen, 4 μL of vaginal fluid filtrate was mixed with 4 μL of each of the three substrate/inhibitor combinations in separate microwells; one well contained 20 μg/mL antipain, one contained 1 mM chymostatin, and one had no inhibitor. After ten minutes, 4 μL of color developer solution was added to each well.
Trichomonal hydrolases were added to each of the filtered vaginal fluid specimens—10 μL of trichomonal hydrolase preparation added to 90 μL vaginal fluid filtrate—and the above experiment was repeated.

[4] = test system: non-trichomonal hydrolases present in normal vaginal fluid supernatants; test: Experiment 6 part 1: inhibition of non-trichomonal hydrolases in filtered normal vaginal fluid; type: biochemical, human; set-up: key: 0: Yellow; 1: Peach; 2: Orange; 3: Light to medium pink; 4: Dark pink or red; 5: Fuchsia; 6: Purple; conditions: uninfected, ZRR-MNA, 20 μg/mL antipain or 1 mM chymostatin
Protocol: as §1, §2

[5] = test system: trichomonal hydrolases; test: Experiment 1: hydrolysis of substrates by trichomonal hydrolases at pH 2.8-9.2, with or without normal vaginal fluid supernatant (NVS), absorbance 540 nm; type: biochemical, Trichomonas vaginalis; conditions: for Absorbance Readings: 540 nm
Protocol: Assays without normal vaginal fluid supernatant present: Two sets of six wells in a microtiter plate were prepared, with each well containing 80 μL of one of the six 200 mM buffers, 10 μL of water and 10 μL of diluted trichomonal hydrolases. Ten μL of ZRR-MNA was added to each well in the first set of wells, and 10 μl of VLK-MNA was added to each well in the second set of wells. After fifteen minutes, 100 μl of indicator solution was added to each well. Because a high pH can reduce the intensity of color produced by the indicator solution, 50 μl of 100 mM acetic acid buffer, pH 3.7, was added to each well except the pH 2.8 wells (water was substituted for the acetic acid in those wells). After another fifteen minutes, the absorbance of the solutions in the wells was measured on a microtiter plate reader set on 540 nm wavelength.
Assays with normal vaginal fluid supernatant (NVS) present: The procedure of the preceding paragraph was followed, except that 10 μL of diluted NVS was added to the wells in place of the 10 μL of water.

[6] = test system: trichomonal hydrolases; test: Experiment 13: hydrolysis of peptide substrates by trichomonal hydrolases at low pH, no vaginal fluid; type: biochemical, Trichomonas vaginalis; set-up: key: −: No red color produced; +: Clearly visible red color produced; ++: Moderately intense red color produced; +++: Very intense red color produced; conditions: without vaginal fluid; threonine buffer pH 2.4; 2 mM substrate solution; 10 min 25° C.; Fast Garnet
Procedure, shortened: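 Peptide substrates incubated in duplicate for 10 min at 25° C. with trichomonal hydrolase diluted 1:9 in 2 mM L-cysteine; negative controls received L-cysteine alone. SDS/acetate and Fast Garnet added, and color visually scored after 5 min on a color scale.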

[7] = test system: trichomonal hydrolases; test: Experiment 13: hydrolysis of peptide substrates by trichomonal hydrolases at low pH in vaginal fluid supernatant; type: biochemical, Trichomonas vaginalis; set-up: key: −: No red color produced; +: Clearly visible red color produced; ++: Moderately intense red color produced; +++: Very intense red color produced; conditions: Fast Garnet
Protocol: Forty μL of each substrate was pipetted into duplicate wells of a microtiter plate. The plate was covered with tape, placed into a 25° C. incubator, and allowed to warm. A diluted enzyme mixture was prepared by mixing one part (v/v) freshly-thawed trichomonal hydrolase solution to nine parts 2 mM L-cysteine solution. Forty μL of this mixture was added to one well of each pair of duplicate wells. For negative controls, 40 μL of 2 mM L-cysteine was added to the second well in each pair of duplicate wells. The plate was returned to the incubator and incubated for ten minutes. Forty μL of SDS/acetate solution was added to each well, followed by 40 μL of Fast Garnet solution. The intensity of color that developed in each well after five minutes was visually scored using the color scale presented in Table 13.1.
Of the nine substrates hydrolyzed by trichomonal hydrolases to produce an intense pink color (scoring ++ or +++) in the absence of vaginal fluid supernatant, only four produced intense pink color when vaginal fluid supernatant was present.

Compound: Cc1cc(=O)oc2cc(NC(=O)[C@H](CCCN=C(N)N)NC(=O)[C@H](CCCCN)NC(=O)[C@H](CC(C)C)NC(=O)OC(C)(C)C)ccc12 [BLKR-AMC, BOC-Leu-Lys-Arg-AMC] (Boc-Leu-Lys-Arg-{AMC})
- Color Scores: Trichomonal hydrolases + NVS ([1]; pH 5 acetate): 0.123
- Color Scores: Trichomonal hydrolases ([1]; pH 5 acetate): 0.638
- Color Scores: Trichomonal hydrolases + NVS ([1]; pH 8 TRIS): 0.731
- Color Scores: Trichomonal hydrolases ([1]; pH 8 TRIS): 0.649
- Color Scores: Whole normal vaginal fluid ([2]; pH 5 acetate): 0.5
- Color Scores: Whole normal vaginal fluid ([2]; pH 8 TRIS): 6

Compound: Cc1cc(=O)oc2cc(NC(=O)[C@H](CCCN=C(N)N)NC(=O)[C@H](CCCN=C(N)N)NC(=O)[C@H](CC(C)C)NC(=O)OC(C)(C)C)ccc12 [BLRR-AMC, BOC-Leu-Arg-Arg-AMC] (Boc-Leu-Arg-Arg-{AMC})
- Color Scores: Trichomonal hydrolases + NVS ([1]; pH 5 acetate): 0.114
- Color Scores: Trichomonal hydrolases ([1]; pH 5 acetate): 0.536
- Color Scores: Trichomonal hydrolases + NVS ([1]; pH 8 TRIS): 0.568
- Color Scores: Trichomonal hydrolases ([1]; pH 8 TRIS): 0.463
- Color Scores: Whole normal vaginal fluid ([2]; pH 5 acetate): 0.5
- Color Scores: Whole normal vaginal fluid ([2]; pH 8 TRIS): 6

Compound: CC(C)C[C@H](NC(=O)[C@@H](NC(=O)N[C@@H](Cc1ccccc1)C(=O)O)[C@@H]1CCN=C(N)N1)C(=O)N[C@H](C=O)Cc1ccccc1 [Chymostatin, chymostatin]
- Hydrolase activity color score with inhibitor ([3]; Donor A filtrate supplemented with trichomonal hydrolases): 3.5
- Hydrolase activity color score with inhibitor ([3]; Donor B filtrate supplemented with trichomonal hydrolases): 3.5
- Hydrolase activity color score with inhibitor ([3]; Donor C filtrate supplemented with trichomonal hydrolases): 3.5
- Hydrolase activity color score with inhibitor ([3]; Donor D filtrate supplemented with trichomonal hydrolases): 4
- Hydrolase activity color score with inhibitor ([3]; Donor E filtrate supplemented with trichomonal hydrolases): 3
- Hydrolase activity color score with inhibitor ([3]; Donor F filtrate supplemented with trichomonal hydrolases): 3
- Hydrolase activity color score with inhibitor ([4]; Donor A): 0
- Hydrolase activity color score with inhibitor ([4]; Donor B): 0
- Hydrolase activity color score with inhibitor ([4]; Donor C): 0
- Hydrolase activity color score with inhibitor ([4]; Donor D): 2
- Hydrolase activity color score with inhibitor ([4]; Donor E): 0
- Hydrolase activity color score with inhibitor ([4]; Donor F): 0

Compound: Cc1cc(=O)oc2cc(NC(=O)[C@H](CCCNC(=N)N)NC(=O)[C@H](CCCCN)NC(=O)[C@H](CCCCN)NC(=O)OCc3ccccc3)ccc12 [ZKKR-AMC, CBZ-Lys-Lys-Arg-AMC] (Cbz-Lys-Lys-Arg-{AMC})
- Color Scores: Trichomonal hydrolases + NVS ([1]; pH 5 acetate): 0.099
- Color Scores: Trichomonal hydrolases ([1]; pH 5 acetate): 0.225
- Color Scores: Trichomonal hydrolases + NVS ([1]; pH 8 TRIS): 0.352
- Color Scores: Trichomonal hydrolases ([1]; pH 8 TRIS): 0.357
- Color Scores: Whole normal vaginal fluid ([2]; pH 5 acetate): 0.5
- Color Scores: Whole normal vaginal fluid ([2]; pH 8 TRIS): 2

Compound: COc1cc(NC(=O)[C@H](CCCN=C(N)N)NC(=O)[C@H](CCCN=C(N)N)NC(=O)OCc2ccccc2)cc2ccccc12 [ZRR-MNA, CBZ-Arg-Arg-MNA]
- Color Scores: Trichomonal hydrolases + NVS ([1]; pH 5 acetate): 0.068
- Color Scores: Trichomonal hydrolases ([1]; pH 5 acetate): 0.420
- Color Scores: Trichomonal hydrolases + NVS ([1]; pH 8 TRIS): 0.182
- Color Scores: Trichomonal hydrolases ([1]; pH 8 TRIS): 0.385
- color production relative to that observed when vaginal fluid was not present ([5]; pH 8 TRIS buffer, 0.403/0.667): 60%
- Absorbance Readings ([5]; with vaginal fluid supernatant, Acetate pH 5.1): 0.082
- Absorbance Readings ([5]; with vaginal fluid supernatant, Borate pH 9.2): 0.089
- Absorbance Readings ([5]; with vaginal fluid supernatant, Gly-gly pH 2.8): 0.085
- Absorbance Readings ([5]; with vaginal fluid supernatant, HEPES pH 7.5): 0.386
- Absorbance Readings ([5]; with vaginal fluid supernatant, MOPS pH 7.0): 0.313
- Absorbance Readings ([5]; with vaginal fluid supernatant, TRIS pH 8.0): 0.403
- Absorbance Readings ([5]; without vaginal fluid supernatant, Acetate pH 5.1): 0.792
- Absorbance Readings ([5]; without vaginal fluid supernatant, Borate pH 9.2): 0.172
- Absorbance Readings ([5]; without vaginal fluid supernatant, Gly-gly pH 2.8): 0.631
- Absorbance Readings ([5]; without vaginal fluid supernatant, HEPES pH 7.5): 0.738
- Absorbance Readings ([5]; without vaginal fluid supernatant, MOPS pH 7.0): 0.638
- Absorbance Readings ([5]; without vaginal fluid supernatant, TRIS pH 8.0): 0.667
- Color Score [6]: ++
- Color Scores: Whole normal vaginal fluid ([2]; pH 5 acetate): 3
- Color Scores: Whole normal vaginal fluid ([2]; pH 8 TRIS): 4
- Color Score [7]: +
